T1: P2X7 receptor (Mus musculus, UniProt Q9Z1M0)
T1 construct: Murine mesenteric lymph nodes (10^7/ml) were disaggregated in DMEM; from tissue; host or cells: murine mesenteric lymph node lymphocytes (CD4+, CD8+ T cells, B cells)
T1 sequence (Q9Z1M0 1-595): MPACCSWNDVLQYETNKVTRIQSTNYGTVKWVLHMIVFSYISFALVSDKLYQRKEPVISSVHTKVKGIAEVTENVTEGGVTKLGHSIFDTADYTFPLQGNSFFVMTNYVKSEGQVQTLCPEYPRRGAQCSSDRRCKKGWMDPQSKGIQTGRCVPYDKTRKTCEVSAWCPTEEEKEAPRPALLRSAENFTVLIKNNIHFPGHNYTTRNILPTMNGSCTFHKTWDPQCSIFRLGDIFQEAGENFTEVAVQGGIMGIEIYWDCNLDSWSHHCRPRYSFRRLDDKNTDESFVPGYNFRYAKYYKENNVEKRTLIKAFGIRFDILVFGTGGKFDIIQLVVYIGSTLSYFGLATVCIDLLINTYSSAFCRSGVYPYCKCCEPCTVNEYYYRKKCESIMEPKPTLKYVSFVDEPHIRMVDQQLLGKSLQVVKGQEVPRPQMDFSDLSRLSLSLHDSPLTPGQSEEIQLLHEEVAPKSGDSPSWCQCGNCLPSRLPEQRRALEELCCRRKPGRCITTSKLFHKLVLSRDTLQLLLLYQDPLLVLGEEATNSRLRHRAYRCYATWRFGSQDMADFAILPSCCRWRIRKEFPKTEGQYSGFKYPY

T2: P2X7 receptor (Rattus norvegicus, UniProt Q64663)
T2 construct: expressed in transfected cells; transiently co-transfected with MDR1 cDNA
T2 sequence (Q64663 1-595): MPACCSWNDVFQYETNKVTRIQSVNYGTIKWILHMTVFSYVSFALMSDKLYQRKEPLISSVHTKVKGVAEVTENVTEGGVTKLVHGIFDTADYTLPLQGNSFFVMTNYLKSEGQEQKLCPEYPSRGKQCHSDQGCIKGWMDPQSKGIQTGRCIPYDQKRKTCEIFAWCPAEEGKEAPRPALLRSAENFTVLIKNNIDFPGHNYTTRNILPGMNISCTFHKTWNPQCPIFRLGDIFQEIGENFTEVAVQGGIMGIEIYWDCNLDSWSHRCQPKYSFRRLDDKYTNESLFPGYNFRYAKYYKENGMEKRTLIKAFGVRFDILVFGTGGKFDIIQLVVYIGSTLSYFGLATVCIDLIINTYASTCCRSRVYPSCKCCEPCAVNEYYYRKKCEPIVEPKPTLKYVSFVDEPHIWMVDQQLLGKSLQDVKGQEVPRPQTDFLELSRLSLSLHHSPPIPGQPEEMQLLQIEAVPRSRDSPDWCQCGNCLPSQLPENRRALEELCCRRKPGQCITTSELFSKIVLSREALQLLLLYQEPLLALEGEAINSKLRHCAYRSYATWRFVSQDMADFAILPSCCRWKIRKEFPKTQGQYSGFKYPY

B1: annexin V: substance which binds to phosphatidylserine and retains it in the outer leaflet (protein, UniProt P08758 2-320, looked up)
Annexin A5: AQVLRGTVTDFPGFDERADAETLRKAMKGLGTDEESILTLLTSRSNAQRQEISAAFKTLFGRDLLDDLKSELTGKFEKLIVALMKPSRLYDAYELKHALKGAGTNEKVLTEIIASRTPEELRAIKQVYEEEYGSSLEDDVVGDTSGYYQRMLVVLLQANRDPDAGIDEAQVEQDAQALFQAGELKWGTDEEKFITIFGTRSVSHLRKVFDKYMTISGFQIEETIDRETSGNLEQLLLAVVKSIRSIPAYLAETLYYAMKGAGTDDHTLIRVMVSRSEIDLFNIRKEFRKNFATSLYSMIKGDTSGDYKKALLLLCGEDD

Tests used:
P2X7 receptor [1] = target: T1, P2X7 receptor; assay: PS translocation (annexin V binding) in murine lymphocytes, real-time flow cytometry; format: cell-based
Excerpt: Murine mesenteric lymph nodes (10^7/ml) were disaggregated in DMEM. To discriminate between different lymphocyte subsets, cells were stained with CD4^APC, CD4^CYCHROME, CD4^PE, CD4^FITC, CD8^APC, CD8^PE, CD8^PERCP, CD8^FITC, B220^APC (Becton Dickinson, Cailf.) antibodies as indicated. The fluorophore on antibodies used to identify CD4^+ and CD8^+T cells was varied in some experiments to avoid overlap between emission spectra of the antibody-conjugated fluorochromes and fluorescent transport substrates. Cells were washed with DMEM and analysed by flow cytometry (CellQuest software—Becton Dickinson). Live cells were gated by eye on the basis of forward scatter and side scatter. […]
To measure drug uptake the following fluorochromes were used (from Molecular Probes, Leiden, Netherlands, unless stated): 0.2 μM BODIPY-taxol (BT), 0.25 μM Rh123, 0.2 μM mitoxantrone (Sigma). PS exposure was monitored simultaneously in the same population of cells by increased binding of annexin V as follows. Cells were equilibrated with annexin V^FITC, annexin V^PE, or annexin V^CY5 (AV—Becton Dickinson, Cailf.) together with propidium iodide (PI) for four minutes, and analysed by flow cytometry on a FACScalibur machine using CellQuest software (Becton Dickinson, Cailf.). […] Cells were monitored for BT uptake or PS exposure continuously in real time for up to 15 minutes, as indicated. […]

P-gp [2] = assay: BODIPY-taxol uptake in HEK 293 cells with or without P2X7, transiently transfected with MDR1; format: cell-based; details: HEK 293 cells expressing both P-gp and P2X7 receptor
P2X7 receptor [3] = format: cell-based; details: HEK 293 cells expressing P-gp but lacking P2X7 receptors
Protocol: (§1) NIH 3T3 cells stably transfected with the human MDR1 gene (Ueda et al, 1987 Proc. Natl. Acad. Sci. USA 84, 3004-3008) were a gift from Michael Gottesman (NIH, Bethesda) and were maintained in 1 μg/ml colchicine in Dulbecco's modified Eagle's medium (DMEM—Sigma). HEK 293 cells stably transfected with rP2X7 have been described elsewhere (Wilson et al, 2002 J. Biol. Chem. 277, 34017-34023). Transient transfection of HEK293 cells was performed using polyethyleneimine (Sigma), as described previously (Dixon et al, 2000 Hum. Mol. Genet. 9, 1209-1217). pMDR1-wt, which encodes wild-type P-gp, has also been described previously (Blott et al, 1999 EMBO J. 18, 6800-6808). Expression of the MDR1 gene product, P-gp, on transfected cells was determined by labelling of cells with UIC2^PE in the presence of cyclosporine A (Sigma), as described by Mechetner et al, (1997 Proc. Natl. Acad. Sci. 94, 12908-12913).
(§2) To measure drug uptake the following fluorochromes were used (from Molecular Probes, Leiden, Netherlands, unless stated): 0.2 μM BODIPY-taxol (BT), 0.25 μM Rh123, 0.2 μM mitoxantrone (Sigma). PS exposure was monitored simultaneously in the same population of cells by increased binding of annexin V as follows. […] Cells were monitored for BT uptake or PS exposure continuously in real time for up to 15 minutes, as indicated. […]

P2X7 receptor [4] = target: T2, P2X7 receptor; format: cell-based; details: HEK 293 cells expressing both P-gp and P2X7 receptor
Protocol: as §1, §2

[5] = tested on: breast cancer resistance protein (abcg2); assay: Mitoxantrone uptake in mdr1a/b-deficient lymphocytes; format: cell-based, mouse; details: 0.2 μM mitoxantrone
[6] = tested on: plasma membrane permeability; assay: Propidium uptake after BzATP stimulation (non-specific membrane permeability); format: cell-based, mouse; details: BzATP-mediated stimulation; data omitted for brevity
[7] = injected into the hindpaw of rats at 100 nmol/50 μl; cited from earlier work
P-gp [8] = assay: Rh123 uptake (P-gp activity) in murine lymphocytes, real-time flow cytometry; format: cell-based, mouse; details: 0.25 μM Rh123, 150 μM BzATP; CD4+, CD8+ and B cells
Excerpt: Murine mesenteric lymph nodes (10^7/ml) were disaggregated in DMEM. To discriminate between different lymphocyte subsets, cells were stained with CD4^APC, CD4^CYCHROME, CD4^PE, CD4^FITC, CD8^APC, CD8^PE, CD8^PERCP, CD8^FITC, B220^APC (Becton Dickinson, Cailf.) antibodies as indicated. The fluorophore on antibodies used to identify CD4^+ and CD8^+T cells was varied in some experiments to avoid overlap between emission spectra of the antibody-conjugated fluorochromes and fluorescent transport substrates. Cells were washed with DMEM and analysed by flow cytometry (CellQuest software—Becton Dickinson). Live cells were gated by eye on the basis of forward scatter and side scatter. Lymphocytes lacking CD4 and CD8 were defined as B cells.
Lymphocytes were labelled with anti-CD4^CYCHROME and anti-CD8^APC antibodies to discriminate between CD4^+T cells, CD8^+T cells and B cells (CD4^− CD8^−). The lymphocytes were incubated with annexin V^PE, and then 0.25 μM Rh123 and 150 μM BzATP were added sequentially (as indicated in the Figures by arrows).

[9] = tested on: mdr1a/b-deficient CD4+ and CD8+ T cells; assay: BODIPY-taxol uptake in mdr1a/b-deficient T cells; format: cell-based, mouse; details: 175 μM BzATP
Protocol: To measure drug uptake the following fluorochromes were used (from Molecular Probes, Leiden, Netherlands, unless stated): 0.2 μM BODIPY-taxol (BT), 0.25 μM Rh123, 0.2 μM mitoxantrone (Sigma). PS exposure was monitored simultaneously in the same population of cells by increased binding of annexin V as follows. Cells were equilibrated with annexin V^FITC, annexin V^PE, or annexin V^CY5 (AV—Becton Dickinson, Cailf.) together with propidium iodide (PI) for four minutes, and analysed by flow cytometry on a FACScalibur machine using CellQuest software (Becton Dickinson, Cailf.). Baseline fluorescence was established for approximately one minute prior to addition of 150 μM (unless otherwise stated) 2′-3′-O-(4-benzoylbenzoyl)-adenosine 5′-triphosphate (BzATP, Sigma). Cells were monitored for BT uptake or PS exposure continuously in real time for up to 15 minutes, as indicated. Continuous line graphs of changes in annexin V binding and fluorochrome uptake were plotted using FCSPress software (FCSPress.com, Cambridge, UK).
Mitoxantrone (Mx) or Mx plus BzATP, were added as indicted by arrows. Mitoxantrone uptake was measured as an increase in mean (±S.E.) fluorescence (FL-4 channel). […] BODIPY-taxol uptake was measured as an increase in mean (±S.E.) fluorescence (FL-1 channel). […] Only the responses of live cells (i.e. those excluding PI) were subsequently analysed.

P2X7-HEK 293 cells = assay: BODIPY-taxol uptake in HEK 293 and P2X7-HEK 293 cells; format: cell-based; details: 150 μM BzATP
Protocol: as §1, §2

P-gp [10] = assay: BODIPY-taxol uptake in NIH3T3-MDR and parental NIH3T3 cells, continuous FACS analysis; format: cell-based, mouse; details: 175 μM BzATP, which lack the P2X7 receptor
Protocol: To measure drug uptake the following fluorochromes were used (from Molecular Probes, Leiden, Netherlands, unless stated): 0.2 μM BODIPY-taxol (BT), 0.25 μM Rh123, 0.2 μM mitoxantrone (Sigma). […] Baseline fluorescence was established for approximately one minute prior to addition of 150 μM (unless otherwise stated) 2′-3′-O-(4-benzoylbenzoyl)-adenosine 5′-triphosphate (BzATP, Sigma). Cells were monitored for BT uptake or PS exposure continuously in real time for up to 15 minutes, as indicated.
BODIPY-taxol (BT) and 175 μM BzATP were added to NIH3T3-MDR and parental NIH3T3 cells at times indicated by arrows. BT uptake was monitored by continuous FACS analysis, as an increase in fluorescence as a function of time.

P-gp [11] = assay: BODIPY-taxol uptake in mixed mdr1a/b-deficient and parental CD8+ lymphocytes; format: cell-based, mouse; details: mdr-deficient versus wild type CD8+ lymphocytes
Excerpt: Mice were between 6 and 14 weeks of age. When experiments utilised FVB.mdr1a/b^−/− mice, age-matched FVB mice were used.
In a further experiment, lymphocytes from mdr1a/b-deficient or parental mice (mdr1a/b^+/+) were labelled with anti-CD8^PE and anti-CD8^PERCP antibodies, respectively (to discriminate between CD8^+ cells from each mouse during subsequent analysis). […]

P-gp [12] = assay: Annexin V trapping of PS after brief BzATP stimulation, BODIPY-taxol uptake in mdr1a/b-deficient and parental lymphocytes; format: cell-based, mouse; details: BzATP 45 seconds, washed, annexin V for 30 minutes to trap PS in the outer leaflet
Protocol: In this example, the inventors compared the uptake of BODIPY-taxol by parental and mdr1a/b-deficient lymphocytes, briefly stimulated with BzATP either in the continuous presence of annexin V to ‘trap’ PS in the outer leaflet, or with annexin V added only shortly before acquisition. The results are shown in FIGS. 4A-D. The experiments were performed as described below. Lymphocytes from mdr1a/b-deficient or parental mice (mdr1a/b^+/+) were labelled with anti-CD8^PE and anti-CD8^CY antibodies, respectively (to discriminate between CD8^+ cells from each mouse during subsequent analysis). […] BODIPY-taxol uptake was then measured by real-time flow cytometry. Reduced BT uptake indicates enhanced P-gp activity; increased annexin^CY5 binding indicates increased PS translocation from the inner to outer leaflet of the membrane. […] As PS exposure in samples stained with annexin V for four minutes immediately following stimulation (not shown) was equivalent to that in cells incubated for 30 minutes, PS trapping by annexin V appeared to be effectively complete.

| Molecule | PS translocation (annexin V binding) (P2X7 receptor [1]; 150 μM BzATP, CD4+ T cells, CD8+ T cells and B cells) | PS translocation (P2X7 receptor [1]; mdr1a/b-deficient lymphocytes) | BODIPY-taxol uptake (P-gp inhibition) (P-gp [2]) | PS translocation (P2X7 receptor [3]) | PS translocation (P2X7 receptor [4]) | uptake of mitoxantrone [5] | uptake of propidium ions [6] | toxicity [7] | P-gp activity (uptake of Rh123) (P-gp [8]) | rate of uptake of BODIPY-taxol [9] | rate of uptake of BODIPY-taxol (P2X7-HEK 293 cells) | P-gp activity (BT accumulation) (P-gp [10]) | BT uptake following BzATP treatment (P-gp [11]) | restoration of P-gp activity (P-gp [12]) |
| --- | --- | --- | --- | --- | --- | --- | --- | --- | --- | --- | --- | --- | --- | --- |
| 2′-3′-O-(4-benzoylbenzoyl)-adenosine 5′-triphosphate [BzATP] | stimulated PS translocation with the order of responsiveness CD4^+ cells>CD8^+ T cells>>B cells | induced PS translocation | increased BODIPY-taxol uptake | neither induced PS translocation | induced PS translocation | markedly increased uptake of mitoxantrone | did not result in an increased uptake of propidium ions | non-toxic | order of responsiveness was CD4^+>CD8^+>>B cells | increased the rate of uptake | increased the rate of uptake | did not inhibit P-gp activity and thus did not increase BT accumulation | rapidly reached equivalence in the mdr-deficient and wild type cells |  |
| B1 |  |  |  |  |  |  |  |  |  |  |  |  |  | prevents the restoration of P-gp activity |

Source: US20070072903A1, “Altering the concentration of intracellular agents by p2x7 receptor modulation” (priority 2003, published 2007)
